Patent publication US9464972B2, “Apparatus and procedure for in vitro measurement of a substance, nicotine, released from a smokeless tobacco product” (priority 2011, dated 2016)
Read-outs that look alike come from different tables or passages of the source.

Conditions: for nicotine release (accumulated, of total nicotine): artificial saliva Table 3, pH 5.8, 37° C., flow 4 ml/min
From the text: The nicotine extraction and collection procedure include the following steps:
1. Add fluid (140) to the reservoir (120). Fluid (140) is artificial saliva where the extraction is nicotine from a smokeless tobacco product;
2. Set the bath (200) and the heating or cooling element (220) temperature control (230) to the temperature desired as established from the in vivo environment. Where the fluid (140) is artificial saliva and, for the measurement of nicotine in a smokeless tobacco product, set the temperature to 37° C.;
3. Start the fluid pump (180) and set the pump to the desired pump rate.
4. When the temperature and flow rate are stabilized, add the product sample (330) to extraction bottle interior (304) onto the screen mesh (325). Where the product sample is for a smokeless tobacco product sample (330) the product sample (330) is a smokeless tobacco sachet; the product sample (330) is placed onto the screen mesh (325) in alignment with the supply tube (310);
5. The fluid (140) from the supply tube (310) is flowed or dripped onto the product sample (330) producing an extract (1000) from the combination of the fluid (140) and the sample (330) which is drained from the extraction bottle (300) by a collection tube (335) and is then deposited into at least one collection bottle (400) at intervals determined by experimental design. Where the product sample (330) is a smokeless tobacco product sample (330) 1−n collection bottles (400) will used with bottles (400) changed at intervals of 1-5 min based on experimental design;
6. Extract the residual element from the product sample (330) by placing the product sample (330) in solvent effective for the type of product sample (330); where the product sample (330) is a smokeless tobacco product, the solvent in the preferred embodiment is 20 to 50 ml ethanol:5% NaOH mixture (9:1), and extract with ultrasound for 30 min.
7. Measure the target element in the extract (1000) by use of a measuring instrument suitable for the attributes of the target element in the extract (1000); for the preferred embodiment when the target element is nicotine from a smokeless tobacco product the measuring instrument is high-performance liquid chromatography (HPLC); the extract (1000) of nicotine in artificial saliva and the residual nicotine from ethanol NaOH mixture are determined using HPLC in the following conditions: • 1. Chromatograph column is a C18 reverse phase column • 2. Mobile phase is methanol and 20 mmol phosphate buffer (23:77, volume to volume) with 0.2% Triethylamine, pH=6.0 • 3. Flow rate is 1 ml/min • 4. Column temperature is 35° C.
Artificial saliva temperature was maintained at 37° C., pump flow rate 1 ml/min. Artificial saliva was made using the formula in Table 1, with a pH of 6.7. The artificial saliva collection intervals were at 1, 2, 3, 4, 5, 6, 7, 8, 9, 10, 12, 14, 16, 18, 20, 24, 28, 32 minutes after the extraction started.
Artificial saliva temperature was maintained at 37° C., pump flow rate 2 ml/min. Artificial saliva was made using the formula in Table 2, with a pH of 7.0. The artificial saliva collection intervals were at 1, 2, 3, 4, 5, 6, 7, 8, 9, 10, 12, 14, 16, 18, 20, 22, 24, 26, 28, 30 minutes after the extraction start.
Artificial saliva temperature was maintained at 37° C., pump flow rate 4 ml/min. Artificial saliva was made using the formula in Table 3, with a pH of 5.8. The artificial saliva collection intervals were at 2, 4, 6, 7, 8, 10, 12, 14, 16, 18, 20, 24, 28, and 32 minutes after the extraction start.

For CN1CCCC1c1cccnc1 (centres unmarked) [nicotine], the nicotine collected (Example 1: 20 to 32 min extraction period, artificial saliva Table 1, pH 6.7, 37° C., flow 1 ml/min) was “very little”, the “nicotine released from tobacco (accumulated, of total nicotine)” value (Example 1: after 20 min of extraction, artificial saliva Table 1, pH 6.7, 37° C., flow 1 ml/min) was “over 90%” and the “average rate of nicotine release” value (Example 1: first 5 minutes, artificial saliva Table 1, pH 6.7, 37° C., flow 1 ml/min, smokeless tobacco sachet) was “approximately 10%”. For the same molecule, the “average rate of nicotine release” value (Example 1: from 6 min to 10 min, artificial saliva Table 1, pH 6.7, 37° C., flow 1 ml/min) was “approximately 4.3%”, the “average rate of nicotine release” value (Example 1: from 11 min to 20 min, artificial saliva Table 1, pH 6.7, 37° C., flow 1 ml/min) was “approximately 1%” and the nicotine collected (Example 2: 20 to 30 min extraction period, artificial saliva Table 2, pH 7.0, 37° C., flow 2 ml/min) was “very little”. For the same molecule, the “nicotine released (of total nicotine)” value (Example 2: first 5 minutes, artificial saliva Table 2, pH 7.0, 37° C., flow 2 ml/min) was 64%, the “nicotine released from tobacco (accumulated, of total nicotine)” value (Example 2: first 20 min of extraction, artificial saliva Table 2, pH 7.0, 37° C., flow 2 ml/min) was “over 95%” and the “nicotine released (additional, of total nicotine)” value (Example 2: from 6 min to 10 min, artificial saliva Table 2, pH 7.0, 37° C., flow 2 ml/min) was 20%. For the same molecule, the “nicotine release (accumulated, of total nicotine)” value (Example 3: first 6 min) was 82% and the “nicotine release (accumulated, of total nicotine)” value (Example 3: first 10 min) was 92%.
